Test results: patent US20160368992A1, “A METHOD OF INCREASING GIPCR SIGNALIZATION IN THE CELLS OF A SCOLIOTIC SUBJECT” (CHU SAINTE-JUSTINE, priority 2013, published 2016)

Tests used:
[1] = test system: MOR, LPA1R, MT2R receptors and Gi1, Gi2, Gi3 proteins; assay: Western blot and qPCR for expression of GPCRs and Gi protein isoforms in MC3T3-E1 cells; type: cell-based
Protocol: Thermo-Script™ reverse transcriptase (Invitrogen) was used to reverse transcribe mRNA into cDNA ([…] total concentration). Several dilutions were tested to choose the concentration that yielded the most efficient amplification. The human primers used were the following: […]
Each amplification was performed in duplicate using […] of diluted cDNA, […] of 3 mM primer solution and […] of 2× QuantiTect™ SYBR Green PCR Master Mix (QIAGEN Inc, Ontario, Canada). All reaction mixes were run on Mx3000P™ system from Stratagene (Agilent Technologies Company, La Jolla, Calif.) and analyzed with MxPro™ QPCR Software also from Stratagene. Relative quantification was calculated with the delta CT method using β-actin as the endogenous control.
Gi proteins isoforms expression levels were determined using Western blot technique. MC3T3-E1 cells were treated with PBS or rOPN 0.5 μg/ml overnight (R&D systems Inc., Minneapolis, USA). These cells were washed with cold PBS 1× then lysed in RIPA buffer (25 mM Tris.Hcl pH7.4, 150 mM NaCl, 1% NP-40, 1% sodium deoxycholate, 0.1% SDS) added with 5 mM NaVO4 and protease inhibitor cocktail (Roche molecular Biochemicals, Mannheim, Germany). Immunoblots were performed with primary antibodies directed specifically against Gi1, Gi2, Gi3, Gs, Phosphoserine, integrin β1 (Santa Cruz Biotechnology, Santa Cruz, Calif.), Mu opioid receptor (MOR) (abcam Toronto, ON, Canada), Lysophosphatidic acid receptor 1 (LPAR1) (assaybiotech Inc., USA), melatonin receptor 2 (MT2) and peroxidase-conjugated secondary antibody. […]
Given that the level of GPCRs is critical for their signaling, it was of interest to examine whether the defective GiPCR signaling induced by OPN is the consequence of a quantitative reduction of these receptors. For this purpose, MC3T3-E1 cells were treated with PBS or rOPN and the cell lysates were analyzed by Western blot for the expression of three different GPCRs; including mu-opioid (MOR), lysophosphatidic acid type 1 (LPA1R) and melatonin type 2 (MT2R) receptors. […]

[2] = test system: Gi proteins with MO, MT2 or β1 integrin receptors; assay: Immunoprecipitation/Western blot: interaction of Gi proteins with GPCR and β1 integrin in MC3T3-E1 cells; type: cell-based
Protocol: MC3T3-E1 cells were treated with PBS or rOPN (0.5 μg/ml) then the whole cell proteins (1 mg) were incubated with anti-MOR (Abcam Toronto, ON, Canada), anti-MT2 or anti-[…] (Santa Cruz Biotechnology), plus protein G beads for immunoprecipitation (IP) at 4° C. overnight. Purified proteins were loaded on 10% gel after IP, then, processed for gel transferring to PVDF membrane and 5% BSA blocking. Membranes were exposed to antibodies specific for Gi1, Gi2, Gi3, MOR, MT2 and β1 integrin at 4° C. overnight and, subsequently, treated with secondary antibody at room temperature for 1 h. Bands were visualized using SuperSignal™ chemiluminescent (Pierce, Rockford, Ill.) and quantified by densitometric scanning.
It is notable that when different receptors signal through the same subfamily of G proteins, they share the same limited pool of G proteins. Therefore, if OPN enhances the recruitment of Gi proteins in the β1 integrin complex, reduction in the amount of Gi proteins in GiPCR complex would be expected. To evaluate this possibility, cells lysates were immunoprecipitated with antibodies against MO, MT2 or β1 integrin receptors, and the presence of Gi proteins in each precipitate was examined by Western blot using antibodies specific for Gi1, Gi2 or Gi3 isoform. […]

## rOPN: exogenous recombinant osteopontin (R&D systems)
[1]; Western blot, rOPN vs PBS
  level of MOR, LPA1R and MT2R receptors: not modified
[1]; immunoblotting, relative to PBS-treated cells
  quantity of Gi proteins (Gi1, Gi2, Gi3): no significant effect
[1]; qPCR, PBS- vs rOPN-treated cells
  mRNA expression of Gi isoforms: no significant difference
[2]; following rOPN treatment
  amount of Gi protein isoforms in the β1 integrin precipitates: elevated
[2]; rOPN-treated vs PBS-treated cells
  relative amount of Gi isoforms immunoprecipitated with MO or MT2 receptor: reduced
